Target: IDO1 (Homo sapiens, UniProt P14902)
Assay: IDO1 Cellular Assay in HeLa Cells Stimulated with IFNγ
Format: cell-based
Details: read-out: HeLa Cell Potency, IC50

Sequence of IDO1 (P14902 whole entry): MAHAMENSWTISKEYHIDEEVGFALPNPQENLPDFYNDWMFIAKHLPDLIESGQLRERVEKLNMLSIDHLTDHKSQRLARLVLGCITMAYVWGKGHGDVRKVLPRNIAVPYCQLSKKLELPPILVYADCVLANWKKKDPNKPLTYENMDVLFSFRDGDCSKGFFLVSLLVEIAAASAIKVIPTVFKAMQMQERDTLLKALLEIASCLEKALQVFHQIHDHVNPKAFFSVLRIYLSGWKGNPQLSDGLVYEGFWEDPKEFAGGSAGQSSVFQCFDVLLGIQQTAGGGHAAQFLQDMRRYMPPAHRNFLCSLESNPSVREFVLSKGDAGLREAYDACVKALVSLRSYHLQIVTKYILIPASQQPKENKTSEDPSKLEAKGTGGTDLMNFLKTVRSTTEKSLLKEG

How did the IC50 turn out when `Cc1cccc(N2CCN(C(=O)Cn3nc(C(=O)N4CC5CC4CC5O)c4c3CCC4)CC2)c1C` (stereo not shown) [Example 96, 1-[4-(2,3-dimethylphenyl)piperazin-1-yl]-2-[3-(5-hydroxy-2-azabicyclo[2.2.1]heptane-2-carbonyl)-5,6-dihydrocyclopenta[c]pyrazol-1(4H)-yl]ethan-1-one] was run?
Its IC50 is 13.2 nM.

How did the IC50 turn out when `Cc1cccc(N2CCN(C(=O)Cn3nc(C(=O)N4CC[C@H](O)[C@H](F)C4)c4c3CCC4)CC2)c1C` [Example 97, 1-[4-(2,3-dimethylphenyl)piperazin-1-yl]-2-{3-[(3R,4S)-3-fluoro-4-hydroxypiperidine-1-carbonyl]-5,6-dihydrocyclopenta[c]pyrazol-1(4H)-yl}ethan-1-one] was run?
The IC50 was 17.1 nM.

With `Cc1cccc(N2CCN(C(=O)Cn3nc(C(=O)N4CC[C@@H](O)[C@@H](F)C4)c4c3CCC4)CC2)c1C` [Example 98, 1-[4-(2,3-dimethylphenyl)piperazin-1-yl]-2-{3-[(3S,4R)-3-fluoro-4-hydroxypiperidine-1-carbonyl]-5,6-dihydrocyclopenta[c]pyrazol-1(4H)-yl}ethan-1-one] as the compound, how does the IC50 read?
The IC50 was 12.4 nM.

Which IC50 does the source give for `Cc1cccc(N2CCN(C(=O)Cn3nc(C(=O)N4CC[C@H](O)[C@H](C)C4)c4c3CCC4)CC2)c1C` [Example 99, 1-[4-(2,3-dimethylphenyl)piperazin-1-yl]-2-{3-[(3R,4S)-4-hydroxy-3-methylpiperidine-1-carbonyl]-5,6-dihydrocyclopenta[c]pyrazol-1(4H)-yl}ethan-1-one] here?
Its IC50 is 3.19 nM.

Which IC50 does the source give for `Cc1cccc(N2CCN(C(=O)Cn3nc(C(=O)N4C[C@H]5CC[C@H](O)[C@H]5C4)c4c3CCC4)CC2)c1C` [Example 100, 1-[4-(2,3-dimethylphenyl)piperazin-1-yl]-2-{3-[(3aR,4S,6aS)-4-hydroxyhexahydrocyclopenta[c]pyrrole-2(1H)-carbonyl]-5,6-dihydrocyclopenta[c]pyrazol-1(4H)-yl}ethan-1-one] here?
Its IC50 is 10.7 nM.

With `Cc1cccc(N2CCN(C(=O)Cn3nc(C(=O)N4CCC(F)(CO)CC4)c4c3CCC4)CC2)c1C` [Example 102, 1-[4-(2,3-dimethylphenyl)piperazin-1-yl]-2-{3-[4-fluoro-4-(hydroxymethyl)piperidine-1-carbonyl]-5,6-dihydrocyclopenta[c]pyrazol-1(4H)-yl}ethan-1-one] as the compound, how does the IC50 read?
The IC50 was 4.38 nM.

`Cc1cccc(N2CCN(C(=O)Cn3nc(C(=O)N4CCOC(CO)C4)c4c3CCC4)CC2)c1C` (stereo not shown) [Example 103, 1-[4-(2,3-dimethylphenyl)piperazin-1-yl]-2-{3-[2-(hydroxymethyl)morpholine-4-carbonyl]-5,6-dihydrocyclopenta[c]pyrazol-1(4H)-yl}ethan-1-one] was tested. Which IC50 did it give?
Its IC50 is 18.3 nM.

Which IC50 does the source give for `Cc1cccc(N2CCN(C(=O)Cn3nc(C(=O)N4CC[C@@H](O)[C@@H](O)C4)c4c3CCC4)CC2)c1C` [Example 104, 2-{3-[(3S,4R)-3,4-dihydroxypiperidine-1-carbonyl]-5,6-dihydrocyclopenta[c]pyrazol-1(4H)-yl}-1-[4-(2,3-dimethylphenyl)piperazin-1-yl]ethan-1-one] here?
Its IC50 is 49.6 nM.

Which IC50 does the source give for `Cc1cccc(N2CCN(C(=O)Cn3nc(C(=O)N4CC5CCC4CO5)c4c3CCC4)CC2)c1C` (stereo not shown) [Example 105, 1-[4-(2,3-dimethylphenyl)piperazin-1-yl]-2-[3-(2-oxa-5-azabicyclo[2.2.2]octane-5-carbonyl)-5,6-dihydrocyclopenta[c]pyrazol-1(4H)-yl]ethan-1-one] here?
The IC50 was 34.5 nM.

`Cc1cccc(N2CCN(C(=O)Cn3nc(C(=O)N4CCC5(CC4)CC5(F)F)c4c3CCC4)CC2)c1C` [Example 110, 2-[3-(1,1-difluoro-6-azaspiro[2.5]octane-6-carbonyl)-5,6-dihydrocyclopenta[c]pyrazol-1(4H)-yl]-1-[4-(2,3-dimethylphenyl)piperazin-1-yl]ethan-1-one] was tested. Which IC50 did it give?
The IC50 was 5.39 nM.

`Cc1cccc(N2CCN(C(=O)Cn3nc(C(=O)N4CCC(O)(c5ccccc5)CC4)c4c3CCC4)CC2)c1C` [Example 111, 1-[4-(2,3-dimethylphenyl)piperazin-1-yl]-2-[3-(4-hydroxy-4-phenylpiperidine-1-carbonyl)-5,6-dihydrocyclopenta[c]pyrazol-1(4H)-yl]ethan-1-one] was tested. Which IC50 did it give?
The IC50 was 28.6 nM.

For `Cc1cccc(N2CCN(C(=O)Cn3nc(C(=O)N4CCC(O)C5CCCCC54)c4c3CCC4)CC2)c1C` (stereo not shown) [Example 112, 1-[4-(2,3-dimethylphenyl)piperazin-1-yl]-2-[3-(4-hydroxyoctahydroquinoline-1(2H)-carbonyl)-5,6-dihydrocyclopenta[c]pyrazol-1(4H)-yl]ethan-1-one], which IC50 is on record?
The IC50 was 3.6 nM.

`Cc1cccc(N2CCN(C(=O)Cn3nc(C(=O)N4CCC(O)(CN(C)C)CC4)c4c3CCC4)CC2)c1C` [Example 113, 2-[3-{4-[(dimethylamino)methyl]-4-hydroxypiperidine-1-carbonyl}-5,6-dihydrocyclopenta[c]pyrazol-1(4H)-yl]-1-[4-(2,3-dimethylphenyl)piperazin-1-yl]ethan-1-one] was tested. Which IC50 did it give?
The IC50 was 372 nM.

With `Cc1cccc(N2CCN(C(=O)Cn3nc(C(=O)N4CCC5(CC4)COCC5O)c4c3CCC4)CC2)c1C` (stereo not shown) [Example 114, 1-[4-(2,3-dimethylphenyl)piperazin-1-yl]-2-[3-(4-hydroxy-2-oxa-8-azaspiro[4.5]decane-8-carbonyl)-5,6-dihydrocyclopenta[c]pyrazol-1(4H)-yl]ethan-1-one] as the compound, how does the IC50 read?
Its IC50 is 6.33 nM.

How did the IC50 turn out when `Cc1cccc(N2CCN(C(=O)Cn3nc(C(=O)N4[C@@H](C)COC[C@@H]4C)c4c3CCC4)CC2)c1C` [Example 115, 2-{3-[(3S,5S)-3,5-dimethylmorpholine-4-carbonyl]-5,6-dihydrocyclopenta[c]pyrazol-1(4H)-yl}-1-[4-(2,3-dimethylphenyl)piperazin-1-yl]ethan-1-one] was run?
The IC50 was 176 nM.

How did the IC50 turn out when `Cc1cccc(N2CCN(C(=O)Cn3nc(C(=O)N4CC5CCC4CC5)c4c3CCC4)CC2)c1C` [Example 116, 2-[3-(2-azabicyclo[2.2.2]octane-2-carbonyl)-5,6-dihydrocyclopenta[c]pyrazol-1(4H)-yl]-1-[4-(2,3-dimethylphenyl)piperazin-1-yl]ethan-1-one] was run?
Its IC50 is 11.6 nM.

`Cc1cccc(N2CCN(C(=O)Cn3nc(C(=O)N4CCN(C(=O)C(C)(C)O)CC4)c4c3CCC4)CC2)c1C` [Example 117, 1-[4-(1-{2-[4-(2,3-dimethylphenyl)piperazin-1-yl]-2-oxoethyl}-1,4,5,6-tetrahydrocyclopenta[c]pyrazole-3-carbonyl)piperazin-1-yl]-2-hydroxy-2-methylpropan-1-one] was tested. Which IC50 did it give?
Its IC50 is 15.1 nM.

How did the IC50 turn out when `Cc1cccc(N2CCN(C(=O)Cn3nc(C(=O)N4CCCC(O)CC4)c4c3CCC4)CC2)c1C` (stereo not shown) [Example 118] was run?
The IC50 was 13.9 nM.

Which IC50 does the source give for `Cc1cccc(N2CCN(C(=O)Cn3nc(C(=O)N4CCC(O)CC4(C)C)c4c3CCC4)CC2)c1C` (stereo not shown) [Example 119, 1-[4-(2,3-dimethylphenyl)piperazin-1-yl]-2-[3-(4-hydroxy-2,2-dimethylpiperidine-1-carbonyl)-5,6-dihydrocyclopenta[c]pyrazol-1(4H)-yl]ethan-1-one] here?
Its IC50 is 33.3 nM.

`Cc1cccc(N2CCN(C(=O)Cn3nc(C(=O)N4CCC5(CC4)CC(=O)N(C)C5)c4c3CCC4)CC2)c1C` [Example 121, 8-(1-{2-[4-(2,3-dimethylphenyl)piperazin-1-yl]-2-oxoethyl}-1,4,5,6-tetrahydrocyclopenta[c]pyrazole-3-carbonyl)-2-methyl-2,8-diazaspiro[4.5]decan-3-one] was tested. Which IC50 did it give?
The IC50 was 17.1 nM.

Which IC50 does the source give for `Cc1cccc(N2CCN(C(=O)Cn3nc(C(=O)N4CC[C@H](CO)[C@H](F)C4)c4c3CCC4)CC2)c1C` [Example 122, 1-[4-(2,3-dimethylphenyl)piperazin-1-yl]-2-{3-[(3S,4R)-3-fluoro-4-(hydroxymethyl)piperidine-1-carbonyl]-5,6-dihydrocyclopenta[c]pyrazol-1(4H)-yl}ethan-1-one] here?
Its IC50 is 10.3 nM.

With `Cc1cccc(N2CCN(C(=O)Cn3nc(C(=O)N4CCN(C5CC5)CC4)c4c3CCC4)CC2)c1C` [Example 123, 2-[3-(4-cyclopropylpiperazine-1-carbonyl)-5,6-dihydrocyclopenta[c]pyrazol-1(4H)-yl]-1-[4-(2,3-dimethylphenyl)piperazin-1-yl]ethan-1-one] as the compound, how does the IC50 read?
The IC50 was 10.1 nM.

With `Cc1cccc(N2CCN(C(=O)Cn3nc(C(=O)N4CC5C(CO)C5C4)c4c3CCC4)CC2)c1C` (stereo not shown) [Example 131, 1-[4-(2,3-dimethylphenyl)piperazin-1-yl]-2-{3-[6-(hydroxymethyl)-3-azabicyclo[3.1.0]hexane-3-carbonyl]-5,6-dihydrocyclopenta[c]pyrazol-1(4H)-yl}ethan-1-one] as the compound, how does the IC50 read?
Its IC50 is 23.2 nM.

For `Cc1cccc(N2CCN(C(=O)Cn3nc(C(=O)N4CCC(n5cncn5)CC4)c4c3CCC4)CC2)c1C` [Example 132, 1-[4-(2,3-dimethylphenyl)piperazin-1-yl]-2-{3-[4-(1H-1,2,4-triazol-1-yl)piperidine-1-carbonyl]-5,6-dihydrocyclopenta[c]pyrazol-1(4H)-yl}ethan-1-one], which IC50 is on record?
The IC50 was 4.55 nM.

`Cc1cccc(N2CCN(C(=O)Cn3nc(C(=O)N4CCC5(CC4)NC(=O)NC5=O)c4c3CCC4)CC2)c1C` [Example 133, 8-(1-{2-[4-(2,3-dimethylphenyl)piperazin-1-yl]-2-oxoethyl}-1,4,5,6-tetrahydrocyclopenta[c]pyrazole-3-carbonyl)-1,3,8-triazaspiro[4.5]decane-2,4-dione] was tested. Which IC50 did it give?
The IC50 was 141 nM.

For `CC1=NC2(CCN(C(=O)c3nn(CC(=O)N4CCN(c5cccc(C)c5C)CC4)c4c3CCC4)CC2)C(=O)N1` [Example 134, 8-(1-{2-[4-(2,3-dimethylphenyl)piperazin-1-yl]-2-oxoethyl}-1,4,5,6-tetrahydrocyclopenta[c]pyrazole-3-carbonyl)-2-methyl-1,3,8-triazaspiro[4.5]dec-1-en-4-one], which IC50 is on record?
Its IC50 is 15.8 nM.

With `Cc1cccc(N2CCN(C(=O)Cn3nc(C(=O)N4CCC5(CC4)C[C@H](C)OC5=O)c4c3CCC4)CC2)c1C` [Example 135, (3S)-8-(1-{2-[4-(2,3-dimethylphenyl)piperazin-1-yl]-2-oxoethyl}-1,4,5,6-tetrahydrocyclopenta[c]pyrazole-3-carbonyl)-3-methyl-2-oxa-8-azaspiro[4.5]decan-1-one] as the compound, how does the IC50 read?
Its IC50 is 38.5 nM.

How did the IC50 turn out when `CNC(=O)C1CCN(C(=O)c2nn(CC(=O)N3CCN(c4cccc(C)c4C)CC3)c3c2CCC3)CC1` [Example 136, 1-(1-{2-[4-(2,3-dimethylphenyl)piperazin-1-yl]-2-oxoethyl}-1,4,5,6-tetrahydrocyclopenta[c]pyrazole-3-carbonyl)-N-methylpiperidine-4-carboxamide] was run?
The IC50 was 21.2 nM.
